Results: patent EP4682145A1, “BENZOHETEROCYCLIC COMPOUND, AND PREPARATION METHOD THEREFOR AND USE THEREOF” (Cascade Pharmaceuticals, Inc., priority 2023, dated 2024)
pEC50: −log10 of the molar value.

These compounds were tested against T1, human FFAR1 (GPR40) (Homo sapiens, UniProt O14842) (assay: NFAT-RE-based reporter gene activity assay (Dual-Glo luciferase) for GPR40 agonistic activity in co-transfected HEK293T cells). Conditions: 4-hour treatment.
T1 construct: Flag; expressed in transfected cells; host or cells: HEK293T
Type: cell-based
Procedure, shortened: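 HEK293T cells co-transfected with human FFAR1, NFAT-RE firefly luciferase and TK-Renilla plasmids; 24 h later treated 4 h with 10 half-log compound dilutions from 1 µM. Firefly/Renilla ratio normalised to DMSO; EC50 from four-parameter fit.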

T1 sequence (O14842 whole entry): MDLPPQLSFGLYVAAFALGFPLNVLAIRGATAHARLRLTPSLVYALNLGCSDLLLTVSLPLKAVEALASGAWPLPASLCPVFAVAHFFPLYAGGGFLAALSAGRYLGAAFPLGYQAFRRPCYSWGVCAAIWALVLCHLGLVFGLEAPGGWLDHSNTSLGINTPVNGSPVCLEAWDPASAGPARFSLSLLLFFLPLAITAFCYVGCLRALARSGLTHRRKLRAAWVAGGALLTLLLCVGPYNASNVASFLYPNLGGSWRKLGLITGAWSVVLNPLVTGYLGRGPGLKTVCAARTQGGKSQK

Compound | pEC50
COc1cccc(N2CCC(c3oc4cc([C@@H](CC(=O)O)C5CC5)ccc4c3C(C)OCC3CCC3)CC2)c1 (stereo partly drawn) [Compound 418] | 7.00 to 8.00
COc1cccc(N2CCC(c3oc4cc([C@@H](CC(=O)O)C5CC5)ccc4c3C(C)OCC3CCCC3)CC2)c1 (stereo partly drawn) [Compound 419] | 7.00 to 8.00
COc1cccc(N2CCC(c3oc4cc([C@@H](CC(=O)O)C5CC5)ccc4c3C(C)OCc3ccco3)CC2)c1 (stereo partly drawn) [Compound 420] | 6.30 to 7.00
COc1cccc(N2CCC(c3oc4cc([C@@H](CC(=O)O)C5CC5)ccc4c3C(C)OCc3cccs3)CC2)c1 (stereo partly drawn) [Compound 421] | 6.30 to 7.00
COc1cccc(N2CCC(c3oc4cc([C@@H](CC(=O)O)C5CC5)ccc4c3C(O)C(C)(C)C)CC2)c1 (stereo partly drawn) [Compound 423] | 6.30 to 7.00
COc1cccc(N2CCC(c3oc4cc([C@@H](CC(=O)O)C5CC5)ccc4c3C(O)c3ccccc3)CC2)c1 (stereo partly drawn) [Compound 424] | < 6.30
COc1cccc(N2CCC(c3oc4cc([C@@H](CC(=O)O)C5CC5)ccc4c3C(OC)c3ccccc3)CC2)c1 (stereo partly drawn) [Compound 425] | 6.30 to 7.00
COc1cccc(N2CCC(c3oc4cc([C@@H](CC(=O)O)C5CC5)ccc4c3C(OCC(C)C)c3ccccc3)CC2)c1 (stereo partly drawn) [Compound 426] | 7.00 to 8.00
COc1cccc(N2CCC(c3oc4cc([C@@H](CC(=O)O)C5CC5)ccc4c3C(OCC(C)C)c3ccc(C)cc3)CC2)c1 (stereo partly drawn) [Compound 427] | 6.30 to 7.00
COc1cccc(N2CCC(c3oc4cc([C@@H](CC(=O)O)C5CC5)ccc4c3C(OCC(C)C)c3cccc(C)c3)CC2)c1 (stereo partly drawn) [Compound 428] | 6.30 to 7.00
COc1cccc(N2CCC(c3oc4cc([C@@H](CC(=O)O)C5CC5)ccc4c3C(OCC(C)C)c3ccccc3C)CC2)c1 (stereo partly drawn) [Compound 429] | 6.30 to 7.00
COc1cccc(N2CCC(c3oc4cc([C@@H](CC(=O)O)C5CC5)ccc4c3C(OCC(C)C)c3cccc(F)c3)CC2)c1 (stereo partly drawn) [Compound 430] | 6.30 to 7.00
COc1cccc(N2CCC(c3oc4cc([C@@H](CC(=O)O)C5CC5)ccc4c3C(OCC(C)C)c3ccc(F)cc3)CC2)c1 (stereo partly drawn) [Compound 431] | 6.30 to 7.00
COc1cccc(N2CCC(c3oc4cc([C@@H](CC(=O)O)C5CC5)ccc4c3C(OCC(C)C)c3ccccc3F)CC2)c1 (stereo partly drawn) [Compound 432] | 7.00 to 8.00
COc1cccc(N2CCC(c3oc4cc([C@@H](CC(=O)O)C5CC5)ccc4c3CNCC(C)(C)C)CC2)c1 [Compound 435] | 7.00 to 8.00
COc1cccc(N2CCC(c3oc4cc([C@@H](CC(=O)O)C5CC5)ccc4c3CNC(=O)C(C)(C)C)CC2)c1 [Compound 436] | < 6.30
COc1cccc(N2CCC(c3oc4cc([C@@H](CC(=O)O)C5CC5)ccc4c3CN(C)CC(C)(C)C)CC2)c1 [Compound 438] | 7.00 to 8.00
COc1cccc(N2CCC(c3oc4cc([C@@H](CC(=O)O)C5CC5)ccc4c3C(C)N(C)CC(C)(C)C)CC2)c1 (stereo partly drawn) [Compound 439] | 6.30 to 7.00

Same assay, conditions: 4-hour treatment, class symbols

Compound | Efficacy (%)
COc1cccc(N2CCC(c3oc4cc([C@@H](CC(=O)O)C5CC5)ccc4c3C(C)OCC3CCC3)CC2)c1 (stereo partly drawn) [Compound 418] | ††† (Efficacy (%) > 150)
COc1cccc(N2CCC(c3oc4cc([C@@H](CC(=O)O)C5CC5)ccc4c3C(C)OCC3CCCC3)CC2)c1 (stereo partly drawn) [Compound 419] | ††††
COc1cccc(N2CCC(c3oc4cc([C@@H](CC(=O)O)C5CC5)ccc4c3C(C)OCc3ccco3)CC2)c1 (stereo partly drawn) [Compound 420] | †† (150 ≥ Efficacy (%) > 100)
COc1cccc(N2CCC(c3oc4cc([C@@H](CC(=O)O)C5CC5)ccc4c3C(C)OCc3cccs3)CC2)c1 (stereo partly drawn) [Compound 421] | ††† (Efficacy (%) > 150)
COc1cccc(N2CCC(c3oc4cc([C@@H](CC(=O)O)C5CC5)ccc4c3C(O)C(C)(C)C)CC2)c1 (stereo partly drawn) [Compound 423] | † (100 ≥ Efficacy (%) > 50)
COc1cccc(N2CCC(c3oc4cc([C@@H](CC(=O)O)C5CC5)ccc4c3C(O)c3ccccc3)CC2)c1 (stereo partly drawn) [Compound 424] | †† (150 ≥ Efficacy (%) > 100)
COc1cccc(N2CCC(c3oc4cc([C@@H](CC(=O)O)C5CC5)ccc4c3C(OC)c3ccccc3)CC2)c1 (stereo partly drawn) [Compound 425] | †† (150 ≥ Efficacy (%) > 100)
COc1cccc(N2CCC(c3oc4cc([C@@H](CC(=O)O)C5CC5)ccc4c3C(OCC(C)C)c3ccccc3)CC2)c1 (stereo partly drawn) [Compound 426] | ††† (Efficacy (%) > 150)
COc1cccc(N2CCC(c3oc4cc([C@@H](CC(=O)O)C5CC5)ccc4c3C(OCC(C)C)c3ccc(C)cc3)CC2)c1 (stereo partly drawn) [Compound 427] | ††† (Efficacy (%) > 150)
COc1cccc(N2CCC(c3oc4cc([C@@H](CC(=O)O)C5CC5)ccc4c3C(OCC(C)C)c3cccc(C)c3)CC2)c1 (stereo partly drawn) [Compound 428] | †† (150 ≥ Efficacy (%) > 100)
COc1cccc(N2CCC(c3oc4cc([C@@H](CC(=O)O)C5CC5)ccc4c3C(OCC(C)C)c3ccccc3C)CC2)c1 (stereo partly drawn) [Compound 429] | ††† (Efficacy (%) > 150)
COc1cccc(N2CCC(c3oc4cc([C@@H](CC(=O)O)C5CC5)ccc4c3C(OCC(C)C)c3cccc(F)c3)CC2)c1 (stereo partly drawn) [Compound 430] | ††† (Efficacy (%) > 150)
COc1cccc(N2CCC(c3oc4cc([C@@H](CC(=O)O)C5CC5)ccc4c3C(OCC(C)C)c3ccc(F)cc3)CC2)c1 (stereo partly drawn) [Compound 431] | †† (150 ≥ Efficacy (%) > 100)
COc1cccc(N2CCC(c3oc4cc([C@@H](CC(=O)O)C5CC5)ccc4c3C(OCC(C)C)c3ccccc3F)CC2)c1 (stereo partly drawn) [Compound 432] | ††† (Efficacy (%) > 150)
COc1cccc(N2CCC(c3oc4cc([C@@H](CC(=O)O)C5CC5)ccc4c3CNCC(C)(C)C)CC2)c1 [Compound 435] | †† (150 ≥ Efficacy (%) > 100)
COc1cccc(N2CCC(c3oc4cc([C@@H](CC(=O)O)C5CC5)ccc4c3CNC(=O)C(C)(C)C)CC2)c1 [Compound 436] | †† (150 ≥ Efficacy (%) > 100)
COc1cccc(N2CCC(c3oc4cc([C@@H](CC(=O)O)C5CC5)ccc4c3CN(C)CC(C)(C)C)CC2)c1 [Compound 438] | †† (150 ≥ Efficacy (%) > 100)
COc1cccc(N2CCC(c3oc4cc([C@@H](CC(=O)O)C5CC5)ccc4c3C(C)N(C)CC(C)(C)C)CC2)c1 (stereo partly drawn) [Compound 439] | †† (150 ≥ Efficacy (%) > 100)
